Measurements: patent US4531001A, “2-β-D-ribofuranosylselenazole-4-carboxamide compounds” (priority 1983, dated 1985)
“And” between values parts separate entries of the source, which are not always exact repeats. Identical values can stand only once.

Assays:
[1] = test system: 3 mouse tumor lines; assay: Growth inhibition in suspension cell culture, representative tumor lines; type: cell-based
Experimental: (§1) In further tests, growth-inhibitory effects of COMPOUND 1 and COMPOUND 2 were measured against 3 mouse tumor lines in suspension cell culture. Cell cultures were initiated at a density of 50,000 cells/ml in medium RPMI 1630 supplemented with 10 percent fetal calf serum. Composition of this culture medium and details of the culture procedure followed the published method (G. E. Moore, A. A. Sandberg and K. Ulrich, Suspension Cell Culture and in vivo and in-vitro chromosome constitution of mouse leukemia L1210, Journal of the National Cancer Institute 36, 405-415, 1966). Cultures were maintained at 37 degrees in stationary suspension culture under a 95 percent air+5 percent CO2 atmosphere. Test compounds were added to treated cultures at the time of initiation, and were present continually. After 72 hours, 40-fold dilutions of drug-treated and untreated control cultures were prepared in 0.9 percent NACl solution, and cells were counted on an electronic particle counter. The growth-inhibitory effects are expressed as ID50 values, namely, test compound inhibitory dosages or concentrations required to decrease cell count in treated cultures to 50 percent of the cell count of untreated control cultures.

[2] = test system: B16 Melanoma; assay: Growth inhibition in suspension cell culture, B16 Melanoma; type: cell-based; conditions: Mus musculus, 72 hours, cell count 50 percent of untreated control, read-out: ID50 (the source's name)
Experimental: as §1

[3] = test system: P388; assay: Growth inhibition in suspension cell culture, P388; type: cell-based; conditions: Mus musculus, 72 hours, cell count 50 percent of untreated control, read-out: ID50 (the source's name)
Experimental: as §1

[4] = test system: L-1210; assay: Growth inhibition in suspension cell culture, L-1210; type: cell-based; conditions: Mus musculus, L1210, 72 hours, cell count 50 percent of untreated control, read-out: ID50 (the source's name)
Experimental: as §1

[5] = test system: Lewis lung carcinoma; assay: Antitumor activity against Lewis lung carcinoma, Example 14 (Table IV); type: in vivo, B6D 2F 1 male mice; set-up: Treated Group Survival Time: unit not given here; conditions: for Treated Group Survival Time: mean, control 19.0
Experimental: As illustrative examples of the antitumor use of COMPOUNDS 1 and 2, Examples 12 through 14, below, are given. […] The tests utilized in these illustrative examples were conducted by the Developmental Therapeutics Program, Division of Cancer Treatment, National Cancer Institute. The tests were supervised by this agency utilizing their standard protocols and procedures. All tests conformed to these protocols and all tests were evaluated under the criteria defined by these protocols. The following representative examples illustrate confirmed activity of the illustrative compounds of the invention against screening tumor systems of the National Cancer Institute.
For purposes of the following examples, the abbreviation IP stands for intraperitoneal and IV stands for intravenous. The mean and median survival times are calculated in instruction 14 (revised 6/78) of the Screening Data Summary, Developmental Therapeutics Program, Division of Cancer Treatment, National Cancer Institute. The contents of this Screening Data Summary including appropriate revisions are herein incorporated by reference.
In the illustrated examples below, the vehicle used as carrier for the drug was injected (minus any drug therein) into the control animals at the same level of use of the vehicle in the drug treated animals in order to eliminate any vehicle effect of the tests.
In both the control group and the drug treated group in Example 12, the animals were inoculated on day zero with a homogenate of 10^6 seed cells of Lewis lung carcinoma. For Example 12, drug treatment was started on day one and COMPOUND 1 given once daily for nine days. Day five was utilized as the cut-off date for deaths attributable to toxicity of the drug. […] Efficacy of treatment was determined by comparing median survival time of the control animals and is expressed as percentage increase of treated animals/control animals (T/C).
COMPOUND 2, 2-(5-phosphono-β-D-ribofuranosyl)selenazole-4-carboxamide was screened for Lewis lung carcinoma activity in a manner similar to that described in Example 12. In this example, B6D 2F 1 male mice were challenged with Lewis lung carcinoma. The mean survival time of the test animals was compared to that of appropriate control animals. […] At 13 mg/kg the treated, surviving mice have a T/C of 315 percent and 4 out of 10 cures were achieved.

In the case of `NC(=O)c1c[se]c([C@@H]2O[C@H](COP(=O)(O)O)[C@@H](O)[C@H]2O)n1` [COMPOUND 2, 2-β-D-Ribofuranosylselenazole-4-Carboxamide 5'-phosphate], the “growth inhibition compared with COMPOUND 1, in words” value ([1]; cell culture) is reported as “appears to be superior to COMPOUND 1”, the “growth inhibition in words” value ([1]; representative tumor lines in cell culture) is reported as “inhibit growth in cell culture for representative tumor lines at extremely low dosage” and the IC50 [2] is reported as 7500 nM. For the same compound, the IC50 [3] was 66 nM, the IC50 [4] was 58 nM and the Cures ([5]; 3 mg/kg) was 0/10. For the same compound, the “Percent Treated Animals/Control Animals (T/C)” value ([5]; 3 mg/kg) was 109%, the “Treated Group Survival Time” value ([5]; 3 mg/kg) was 20.8 and the Cures ([5]; 6 mg/kg) was 0/10. The “Percent Treated Animals/Control Animals (T/C)” value ([5]; 6 mg/kg) was 115%, the “Treated Group Survival Time” value ([5]; 6 mg/kg) was 22.0 and the Cures ([5]; 9 mg/kg) was 1/10. The “Treated Group Survival Time” value ([5]; 9 mg/kg) was 12.5, the Cures ([5]; 13 mg/kg) was 4 out of 10 and 4/10 and the “Percent Treated Animals/Control Animals (T/C)” value ([5]; 13 mg/kg) was 315%. For the same compound, the “Treated Group Survival Time” value ([5]; 13 mg/kg) was 60.0, the Cures ([5]; 20 mg/kg) was 2/10 and the “Treated Group Survival Time” value ([5]; 20 mg/kg) was 12.0. For the same compound, the Cures ([5]; 33 mg/kg) was 3/10, the “Treated Group Survival Time” value ([5]; 33 mg/kg) was 12.5 and the Cures ([5]; 50 mg/kg) was 3/10. For the same compound, the “Treated Group Survival Time” value ([5]; 50 mg/kg) was 12.5, the Cures ([5]; 75 mg/kg) was 1/10 and the “Treated Group Survival Time” value ([5]; 75 mg/kg) was 15.5. The “antitumor activity in words” value ([5]; mean survival time versus control) was “effective antitumor agent”.
